Measured values published in publication PMC5034901, “Development & automation of a novel [^18F]F prosthetic group, 2-[^18F]-fluoro-3-pyridinecarboxaldehyde, and its application to an amino(oxy)-functionalised Aβ peptide” (Applied Radiation and Isotopes, 2016).

Assay: Pre-clinical PET biodistribution
Assay type: in vivo
Settings: Wistar rats, radiolabel carried on [18F]RI-OR2-TAT
Method: Wistar rats (n =3) were anaesthetised using isoflurane (induction 4% and maintained 1.5%) in 70% N2O and 30% O2 mixture. […] All scans were carried out using a Siemens Inveon® PET-CT scanner. The acquisition protocol parameters consisted of a preliminary CT scan to attain attenuation correction factors followed by a 1 h PET acquisition with time coincidence window of 3.432 ns and levels of energy discrimination set between 350 keV and 650 keV. Images were reconstructed and analysed as described elsewhere ([Boutin et al., 2015]).

stability to defluorination (bone uptake of radioactivity): relatively little bone uptake
SMILES: O=Cc1cccnc1[18F] [[^18F]FPCA, 2-[^18F]-Fluoro-3-pyridinecarboxaldehyde]
